Measurements as given in the NIST ThermoML archive (doi:10.1016/j.jct.2019.04.017).
Numbers after ± are expanded uncertainties.

Columns and labels:
[1] = 96 kPa, Liquid; for viscosity: Cone and plate viscometry; for electrical conductivity: Frequency=0.001 MHz, Alternating current cell with electrodes
[2] = xn = mol fraction of the nth substance listed; details: 96 kPa, Liquid, Cone and plate viscometry, x2 = 0

`C1CCC2=NCCCN2CC1` [1,8-diaza-7-bicyclo[5.4.0]undecene] showed a viscosity ([1]; 288.1 K) of 15.35 ± 1 mPa·s, an electrical conductivity ([1]; 288.1 K) of 0.000222 ± 8.8e-06 S/m and an electrical conductivity ([1]; 293.1 K) of 0.000241 ± 9.5e-06 S/m. It also gave a viscosity ([1]; 298.1 K) of 10.32 ± 0.67 mPa·s, an electrical conductivity ([1]; 298.1 K) of 0.000267 ± 1.1e-05 S/m and an electrical conductivity ([1]; 303.1 K) of 0.000297 ± 1.2e-05 S/m. It also gave a viscosity ([1]; 308.1 K) of 8.17 ± 0.53 mPa·s, an electrical conductivity ([1]; 308.1 K) of 0.00032 ± 1.3e-05 S/m and an electrical conductivity ([1]; 313.1 K) of 0.000356 ± 1.4e-05 S/m. The viscosity ([1]; 318.1 K) was 6.08 ± 0.39 mPa·s, the electrical conductivity ([1]; 318.1 K) was 0.000382 ± 1.5e-05 S/m and the electrical conductivity ([1]; 323.1 K) was 0.000423 ± 1.7e-05 S/m. The viscosity ([1]; 328.1 K) was 4.91 ± 0.32 mPa·s and the electrical conductivity ([1]; 328.1 K) was 0.000444 ± 1.8e-05 S/m.

For `OCC(O)CO` [glycerol], the viscosity ([1]; 288.1 K) was 2180 ± 380 mPa·s, the viscosity ([1]; 298.1 K) was 933.8 ± 110 mPa·s and the viscosity ([1]; 308.1 K) was 420.3 ± 39 mPa·s. It also gave a viscosity ([1]; 318.1 K) of 195.6 ± 15 mPa·s and a viscosity ([1]; 328.1 K) of 104.3 ± 7.3 mPa·s.

Work on `OCC(O)CO` [glycerol] + C1CCC2=NCCCN2CC1 yielded a viscosity ([2]; 288.1 K) of 2180 ± 380 mPa·s, a viscosity ([2]; 298.1 K) of 933.8 ± 110 mPa·s and a viscosity ([2]; 308.1 K) of 420.3 ± 39 mPa·s. It also gave a viscosity ([2]; 318.1 K) of 195.6 ± 15 mPa·s and a viscosity ([2]; 328.1 K) of 104.3 ± 7.3 mPa·s.
